The target of the experiment is T1, sodium-proton exchanger of subtype 3 (NHE3) (Homo sapiens, UniProt P48764).
T1 construct: expressed in transfected cells
T1 sequence (P48764 26-834): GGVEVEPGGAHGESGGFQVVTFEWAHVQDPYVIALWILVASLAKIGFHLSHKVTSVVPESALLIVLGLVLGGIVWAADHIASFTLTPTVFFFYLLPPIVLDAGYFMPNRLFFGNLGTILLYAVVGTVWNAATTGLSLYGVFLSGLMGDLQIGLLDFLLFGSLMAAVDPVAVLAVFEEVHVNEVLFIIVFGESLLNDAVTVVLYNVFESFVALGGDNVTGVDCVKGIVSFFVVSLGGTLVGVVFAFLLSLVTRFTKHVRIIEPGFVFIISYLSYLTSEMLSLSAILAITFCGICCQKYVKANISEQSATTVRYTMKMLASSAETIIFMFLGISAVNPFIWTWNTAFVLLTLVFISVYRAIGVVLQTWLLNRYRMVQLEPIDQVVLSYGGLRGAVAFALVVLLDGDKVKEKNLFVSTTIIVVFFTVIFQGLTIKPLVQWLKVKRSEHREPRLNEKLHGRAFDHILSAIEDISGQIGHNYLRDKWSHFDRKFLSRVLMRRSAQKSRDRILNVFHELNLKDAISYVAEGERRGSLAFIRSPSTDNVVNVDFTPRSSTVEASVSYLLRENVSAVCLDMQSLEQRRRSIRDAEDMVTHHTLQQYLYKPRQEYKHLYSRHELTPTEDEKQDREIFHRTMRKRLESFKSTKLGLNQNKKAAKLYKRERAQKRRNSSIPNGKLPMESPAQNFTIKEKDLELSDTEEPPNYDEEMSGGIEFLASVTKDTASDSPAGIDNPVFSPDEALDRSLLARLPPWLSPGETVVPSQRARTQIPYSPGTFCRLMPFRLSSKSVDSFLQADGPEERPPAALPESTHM
Briefly: Recovery of intracellular pH (pHi) after acidification in LAP1 cells stably expressing NHE3 (BCECF fluorescence, FLIPR). The conditions noted are these: LAP1 cells stably expressing NHE3; pH recovery after acidification; range 1 is % inhibition at 10 μM; read-out: Activity range (inhibitory effect on NHE3). It is filed as cell-based.

SMILES strings stand for the structures. Bounds are passed on as bounds.

For `Fc1ccc(O[C@@H]2c3ccccc3C[C@H]2N2C[C@H]3CNC[C@H]3C2)c(F)c1` (racemic) [Example 9, 2-[rac-trans-(1,2)-1-(2,4-difluorophenoxy)indan-2-yl]octahydropyrrolo[3,4-c]pyrrole], the IC50 fell in the range of 1000 to 10000 nM.
Same read-out and setting: as for `O=C1CCC(=O)N1c1ccc(O[C@H]2c3cc(Cl)cc(Cl)c3C[C@@H]2N2CC[C@@H](O)C2)cc1` [Example 334, 1-{4-[trans-(1S,2S)-4,6-dichloro-2-((R)-3-hydroxypyrrolidin-1-yl)indan-1-yloxy]phenyl}pyrrolidine-2,5-dione], the figure is < 1000 nM.
Take `c1ccc2c(c1)CC[C@H](N1CCOCC1)[C@H]2Oc1cccc2ncccc12` (racemic) [Example 570, 5-(rac-trans-(1,2)-2-morpholin-4-yl-1,2,3,4-tetrahydronaphthalen-1-yloxy)quinoline]: the inhibition at 10 µM lay in the range of 20 to 50%.
As to `CC(=O)Nc1cccc(O[C@H]2c3c(Cl)cccc3C[C@@H]2N2CCCC2)c1` (racemic) [Example 662, N-[3-(rac-trans-(1,2)-7-chloro-2-pyrrolidin-1-ylindan-1-yloxy)phenyl]acetamide], the IC50 lay within 1000 to 10000 nM.
The same measure, in the same setting: the result for `CS(=O)(=O)c1ccc(O[C@H]2c3cc(Cl)cc(Cl)c3C[C@@H]2N2CC[C@@H](CO)C2)cc1` [Example 227, {(R)-1-[trans-(1S,2S)-4,6-dichloro-1-(4-methanesulfonylphenoxy)indan-2-yl]pyrrolidin-3-yl}methanol] reads 1000 to 10000 nM.
On the same count and under the same terms, as for `CC(=O)Nc1cccc(O[C@@H]2c3cc(Cl)cc(F)c3C[C@H]2N2CCCC2)c1` (racemic) [Example 660, N-[3-(rac-trans-(1,2)-6-chloro-4-fluoro-2-pyrrolidin-1-ylindan-1-yloxy)phenyl]acetamide], the figure is 1000 to 10000 nM; as for `N[C@@H]1CCCN([C@H]2CCc3ccccc3[C@@H]2Oc2ccc(F)c3cccnc23)C1` (racemic) [Example 79, (R)-1-[rac-trans-(1,2)-1-(5-fluoroquinolin-8-yloxy)-1,2,3,4-tetrahydronaphthalen-2-yl]piperidin-3-ylamine], < 1000 nM; as for `CCc1ccc(O[C@@H]2c3ccccc3C[C@H]2N2CCC(CN)C2)c(C(C)(C)C)c1` (mixture of isomers) [Example 610, C-{1-[rac-trans-(1,2)-1-(2-tert-butyl-4-ethylphenoxy)indan-2-yl]pyrrolidin-3-yl}methylamine], 1000 to 10000 nM.
In the case of `CN1CCN(c2cc(O[C@H]3c4cc(Cl)cc(Cl)c4C[C@@H]3N3CC[C@@H](O)C3)ccc2Cl)C1=O` [Example 311, 1-{2-chloro-5-[(1S,2S)-4,6-dichloro-2-((R)-3-hydroxypyrrolidin-1-yl)indan-1-yloxy]phenyl}-3-methylimidazolidin-2-one], the inhibition at 10 µM lay within 20 to 50%.
Still for that read-out and setting: the result for `CS(=O)(=O)c1ccc(O[C@H]2c3cc(Cl)cc(Cl)c3C[C@@H]2N2CCN(C3CC3)CC2)cc1` [Example 351, 1-Cyclopropyl-4-[trans-(1S,2S)-4,6-dichloro-1-(4-methanesulfonylphenoxy)indan-2-yl]piperazine] reads 20 to 50%.
`CN1CCN(c2cccc(O[C@H]3c4cc(Cl)cc(Cl)c4C[C@@H]3N3CCNCC3)c2)C1=O` (racemic) [Example 258, 1-[3-(rac-trans-(1,2)-4,6-dichloro-2-piperazin-1-ylindan-1-yloxy)phenyl]-3-methylimidazolidin-2-one]: the IC50 was < 1000 nM.
The same measure, in the same setting: as for `CS(=O)(=O)c1ccc(O[C@H]2c3cc(Cl)cc(Cl)c3C[C@@H]2N2CC(O)C2)cc1` [Example 307, 1-[trans-(1S,2S)-4,6-dichloro-1-(4-methanesulfonylphenoxy)indan-2-yl]azetidin-3-ol], the figure is 1000 to 10000 nM.
Still for that read-out and setting: as for `NS(=O)(=O)c1ccc(O[C@H]2c3cc(Cl)cc(Cl)c3C[C@@H]2N2CCOCC2)c(Cl)c1Cl` (racemic) [Example 358, 2,3-dichloro-4-(rac-trans-(1,2)-4,6-dichloro-2-morpholin-4-ylindan-1-yloxy)benzenesulfonamide], the figure is 1000 to 10000 nM.
With `CS(=O)(=O)c1ccc(O[C@H]2c3ccccc3C[C@@H]2N2CCn3cnnc3C2)cc1` (racemic) [Example 590, 7-[rac-trans-(1,2)-1-(4-methanesulfonylphenoxy)indan-2-yl]-5,6,7,8-tetrahydro-[1,2,4]triazolo[4,3-a]pyrazine], the inhibition at 10 µM was 20 to 50%.
Turning to `O=C1CCCN1c1ccc(O[C@H]2c3cc(Cl)cc(Cl)c3C[C@@H]2N2CC[C@@H](O)C2)c(Cl)c1` [Example 321, 1-{3-chloro-4-[(1S,2S)-4,6-dichloro-2-((R)-3-hydroxypyrrolidin-1-yl)indan-1-yloxy]phenyl}pyrrolidin-2-one], the IC50 is < 1000 nM.
Same read-out and setting: the result for `O=C1CNC(=O)N1c1ccc(O[C@H]2c3cc(Cl)cc(Cl)c3C[C@@H]2N2CC[C@@H](O)C2)cc1` [Example 426, 3-{4-[(1S,2S)-4,6-dichloro-2-((R)-3-hydroxypyrrolidin-1-yl)indan-1-yloxy]phenyl}imidazolidine-2,4-dione] reads < 1000 nM; that for `C[C@@H]1CN([C@H]2Cc3c(Cl)cc(Cl)cc3[C@@H]2Oc2ccc(S(C)(=O)=O)cc2)C[C@H](C)N1` [Example 21, (3R,5S)-1-[trans-(1S,2S)-4,6-dichloro-1-(4-methanesulfonylphenoxy)indan-2-yl]-3,5-dimethylpiperazine], < 1000 nM.
With `N#Cc1ccc(O[C@H]2c3cc(Cl)cc(Cl)c3C[C@@H]2N2CCC2)c(F)c1` [Example 454, 4-((1S,2S)-2-azetidin-1-yl-4,6-dichloroindan-1-yloxy)-3-fluorobenzonitrile], the inhibition at 10 µM was in the range of 20 to 50%.
Consider `O=C1COC(=O)N1c1ccc(F)c(O[C@H]2c3cc(Cl)cc(Cl)c3C[C@@H]2N2CC[C@@H](O)C2)c1` [Example 418, 3-{3-[(1S,2S)-4,6-dichloro-2-((R)-3-hydroxypyrrolidin-1-yl)indan-1-yloxy]-4-fluorophenyl}oxazolidine-2,4-dione], for which the IC50 lay within 1000 to 10000 nM.
The same measure, in the same setting: the result for `Clc1cc(Cl)c2c(c1)[C@H](Oc1cccc(-n3cnnn3)c1)[C@@H](N1CCNCC1)C2` [Example 248, 1-[(1S,2S)-4,6-dichloro-1-(3-tetrazol-1-ylphenoxy)indan-2-yl]piperazine] reads < 1000 nM; that for `c1cc(CN2CCCCC2)cc(O[C@@H]2c3ccccc3C[C@H]2N2C[C@H]3CNC[C@H]3C2)c1` (racemic) [Example 14, 2-[rac-trans-(1,2)-1-(3-piperidin-1-ylmethylphenoxy)indan-2-yl]octahydropyrrolo[3,4-c]pyrrole], 1000 to 10000 nM.
On to `CS(=O)(=O)c1ccc(O[C@H]2c3cc(Cl)cc(Cl)c3C[C@@H]2N2CCC(S(C)(=O)=O)C2)cc1` (mixture of isomers) [Example 249, 1-[(1S,2S)-4,6-dichloro-1-(4-methanesulfonylphenoxy)indan-2-yl]-3-methanesulfonylpyrrolidine], for which the inhibition at 10 µM fell in the range of 20 to 50%.
`O=c1[nH]ccn1-c1ccc(O[C@H]2c3cc(Cl)cc(Cl)c3C[C@@H]2N2CC[C@@H](O)C2)c(F)c1` [Example 323, 1-{4-[(1S,2S)-4,6-dichloro-2-((R)-3-hydroxypyrrolidin-1-yl)indan-1-yloxy]-3-fluorophenyl}-1,3-dihydroimidazol-2-one]: the IC50 was < 1000 nM.
The same measure, in the same setting: the result for `Cc1ccc(O[C@@H]2c3ccccc3C[C@H]2N2C[C@H]3CNC[C@H]3C2)c(Br)c1` (racemic) [Example 10, 2-[rac-trans-(1,2)-1-(2-bromo-4-methylphenoxy)indan-2-yl]octahydropyrrolo[3,4-c]pyrrole] reads 1000 to 10000 nM; that for `COc1cc(Cl)cc(O[C@H]2c3ccccc3CC[C@@H]2N2CCC[C@H](N)C2)c1` (racemic) [Example 163, (S)-1-[rac-trans-(1,2)-1-(3-chloro-5-methoxyphenoxy)-1,2,3,4-tetrahydronaphthalen-2-yl]piperidin-3-ylamine], 1000 to 10000 nM.
The same measure, in the same setting: as for `CC(C)[C@H]1COC(=O)N1c1ccc(F)c(O[C@H]2c3cc(Cl)cc(F)c3C[C@@H]2N2CC[C@@H](O)C2)c1` [Example 210, (S)-3-{3-[(1S,2S)-6-chloro-4-fluoro-2-((R)-3-hydroxypyrrolidin-1-yl)indan-1-yloxy]-4-fluorophenyl}-4-isopropyloxazolidin-2-one], the figure is 1000 to 10000 nM; as for `O=C1CNC(=O)N1c1ccc(Cl)c(O[C@H]2c3cc(Cl)cc(Cl)c3C[C@@H]2N2CC[C@@H](O)C2)c1` [Example 433, 3-{4-chloro-3-[(1S,2S)-4,6-dichloro-2-((R)-3-hydroxypyrrolidin-1-yl)indan-1-yloxy]phenyl}imidazolidine-2,4-dione], 1000 to 10000 nM.
Consider `CS(=O)(=O)c1ccc(O[C@H]2c3cc(F)cc(F)c3C[C@@H]2N2CC[C@@H](O)C2)cc1` [Example 28, (R)-1-[(1S,2S)-4,6-difluoro-1-(4-methanesulfonylphenoxy)indan-2-yl]pyrrolidin-3-ol], for which the IC50 lay in the range of 1000 to 10000 nM.

These data come from US8822449B2, “Substituted aminoindanes and analogs thereof, and the pharmaceutical use thereof” (Sanofi, priority 2008, dated 2014).
